Where two headings read alike, the source gives them in different places.
Key:
skin of hairless mice = conditions: topical in acetone, once daily days 1 through 5, mean ±SD, range 0-21
Text: This irritation is a direct result of activation of the RAR nuclear receptors. Analysis of retinoid topical irritation is also a highly reproducible method of determining in vivo retinoid potency. The SKH1-hrBR or hairless mouse provides a convenient animal model of topical irritation, since retinoid-induced skin flaking and abrasion can be readily scored by eye (Standeven et al., “Specific antagonist of retinoid toxicity in mice.” Toxicol. Appl. Pharmacol., 138:169-175, (1996); Thacher, et al., “Receptor specificity of retinoid-induced hyperplasia. Effect of RXR-selective agonists and correlation with topical irritation”. J. Pharm. Exp. Ther., 282:528-534, (1997)).
Female hairless mice (Crl:SKH1-hrBR), 5-7 weeks old, were obtained from Charles River Breeding Labs (Wilmington, Mass.). […]
The mice were weighed daily and the dorsal skin was graded daily using separate semi-quantitative scales to determine flaking and abrasion. […]
Flaking onset score (2) and average severity score (3) are summed and divided by two. […] Composite flaking scores are calculated for each individual animal in a group, averaged, and rounded to the nearest integer. […]
Abrasion onset score (5) and average severity score (6) are summed and divided by two. […] Composite abrasion scores are calculated for each individual animal in a group, averaged and rounded to the nearest integer. […]

[1] = biological target: T1, P450RAI-1 stably transfected HeLa cells (Homo sapiens, UniProt O43174); experiment: P450RAI-1 cell-based inhibitor assay; conditions: inhibition of all-trans-RA metabolism, [3H]-RA, 3 hours at 37° C.; read-out: P450RAI INHIBITION DATA INTACT HELA IC50
T1 construct: expressed in transfected cells; host or cells: HeLa cells, stably transfected, hygromycin selection
T1 sequence (O43174 1-497): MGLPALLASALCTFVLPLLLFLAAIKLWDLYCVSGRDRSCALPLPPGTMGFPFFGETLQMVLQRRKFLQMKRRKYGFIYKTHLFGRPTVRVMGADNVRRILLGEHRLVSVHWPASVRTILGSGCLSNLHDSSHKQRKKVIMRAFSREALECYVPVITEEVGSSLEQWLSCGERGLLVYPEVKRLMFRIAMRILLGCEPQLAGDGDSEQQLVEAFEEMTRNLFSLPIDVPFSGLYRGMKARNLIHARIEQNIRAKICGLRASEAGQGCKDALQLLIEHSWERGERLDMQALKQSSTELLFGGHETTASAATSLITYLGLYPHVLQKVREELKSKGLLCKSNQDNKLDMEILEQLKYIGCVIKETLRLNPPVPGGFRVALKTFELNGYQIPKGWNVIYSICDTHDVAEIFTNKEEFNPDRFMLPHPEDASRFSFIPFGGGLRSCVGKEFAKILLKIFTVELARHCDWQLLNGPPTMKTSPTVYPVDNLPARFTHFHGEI
Method: P450RAI-1 Cell-Based Inhibitor Assay:
P450RAI -1 stably transfected HeLa cells are maintained in […] tissue culture dishes in Modified Eagle's Medium (MEM) containing 10% Fetal Bovine Serum (FBS) and 100 μg/ml hygromycin. Exponentially growing cells are harvested by incubating in trypsin. Cells are then washed with 1× Phosphate Buffered Saline (PBS) and plated in a 48-well plate at 5×10^5 cells in 0.2 ml MEM medium containing 10% FBS and 0.05 μCi [^3H]-RA in the presence or absence of increasing concentrations of the test compounds. The compounds are diluted in 100% DMSO and then added in triplicate wells at either 10, 1 or 0.1 μM final concentration. As a positive control for RA metabolism inhibition, cells are also incubated with ketoconazole at 100, 10 and 1 μM. Cell are incubated for 3 hours at 37° C. […] The water soluble radioactivity is quantified using a β-scintillation counter. IC50 values represent the concentration of inhibitor required to inhibit all-trans-RA metabolism by 50 percent and are derived manually from log-transformed data.

RARα = biological target: T2, RARα (Homo sapiens, UniProt P10276); experiment: ligand binding assay, RARα; conditions: read-out: RAR α Kd
T2 sequence (P10276 1-462): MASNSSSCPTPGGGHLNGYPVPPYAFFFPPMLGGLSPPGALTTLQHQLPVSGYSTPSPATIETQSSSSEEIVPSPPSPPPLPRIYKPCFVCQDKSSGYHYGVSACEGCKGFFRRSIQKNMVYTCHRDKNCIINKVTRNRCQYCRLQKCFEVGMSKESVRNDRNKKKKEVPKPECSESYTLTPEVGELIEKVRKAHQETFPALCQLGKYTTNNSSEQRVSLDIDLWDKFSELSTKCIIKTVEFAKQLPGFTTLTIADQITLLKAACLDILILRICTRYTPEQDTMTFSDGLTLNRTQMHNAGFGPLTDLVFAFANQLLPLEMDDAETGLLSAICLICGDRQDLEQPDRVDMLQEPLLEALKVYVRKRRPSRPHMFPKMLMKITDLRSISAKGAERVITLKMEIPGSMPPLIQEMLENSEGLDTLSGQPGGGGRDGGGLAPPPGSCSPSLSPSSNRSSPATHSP
Text: (§1) Assays described below measure the ability of a compound to bind to, and/or activate various retinoid receptor subtypes. When in these assays a compound binds to a given receptor subtype and activates the transcription of a reporter gene through that subtype, then the compound is considered an agonist of that receptor subtype. […] In the below described assays the ability of the compounds to bind to RAR60 , RAR62 , RARγ, RXR60 , RXR62 , and RXRγ receptors, and the ability or inability of the compounds to activate transcription of a reporter gene through these receptor subtypes can be tested.
A holoreceptor transactivation assay and a ligand binding assay which measure the antagonist/agonist like activity of the compounds of the invention, or their ability to bind to the several retinoid receptor subtypes, respectively, are described in published PCT Application No. WO WO93/11755 (particularly on pages 30-33 and 37-41) published on Jun. 24, 1993, the specification of which is also incorporated herein by reference. A detailed experimental procedure for holoreceptor transactivations has been described by Heyman et al. Cell 68,397-406, (1992); Allegretto et al. J. Biol. Chem. 268,26625-26633, and Mangelsdorf et al. The Retinoids: Biology, Chemistry and Medicine, pp 319-349, Raven Press Ltd., New York, which are expressly incorporated herein by reference. […]

RARβ = biological target: T3, RARβ (Homo sapiens, UniProt P10826); experiment: ligand binding assay, RARβ; conditions: read-out: RAR β Kd
T3 sequence (P10826 1-455): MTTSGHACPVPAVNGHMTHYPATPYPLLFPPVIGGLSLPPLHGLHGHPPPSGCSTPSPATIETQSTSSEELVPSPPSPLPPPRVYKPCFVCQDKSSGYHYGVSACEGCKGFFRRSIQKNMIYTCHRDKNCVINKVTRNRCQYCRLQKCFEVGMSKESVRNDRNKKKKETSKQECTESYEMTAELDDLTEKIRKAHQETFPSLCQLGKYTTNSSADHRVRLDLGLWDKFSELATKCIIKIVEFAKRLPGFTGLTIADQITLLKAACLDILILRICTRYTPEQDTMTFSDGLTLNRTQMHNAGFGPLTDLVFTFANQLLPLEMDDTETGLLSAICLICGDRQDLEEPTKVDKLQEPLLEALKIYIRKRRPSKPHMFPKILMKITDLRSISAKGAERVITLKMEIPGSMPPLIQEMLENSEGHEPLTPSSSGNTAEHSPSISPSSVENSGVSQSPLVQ
Text: as §1
A holoreceptor transactivation assay and a ligand binding assay which measure the antagonist/agonist like activity of the compounds of the invention, or their ability to bind to the several retinoid receptor subtypes, respectively, are described in published PCT Application No. WO WO93/11755 (particularly on pages 30-33 and 37-41) published on Jun. 24, 1993, the specification of which is also incorporated herein by reference. […] The results obtained in this assay are expressed in EC50 numbers, as they are also in the chimeric receptor transactivation assay. The results of ligand binding assay are expressed in Kd numbers. (See Cheng et al. Biochemical Pharmacology Vol. 22 pp 3099-3108, expressly incorporated herein by reference.)

| IC50 [1] | Kd (RARα) | Kd (RARβ) | SMILES | Cutaneous Toxicity Score (Blackjack Score) (skin of hairless mice; 100 nmole (nmol/25 g)) | Cutaneous Toxicity Score (Blackjack Score) (skin of hairless mice; 1000 nmole (nmol/25 g)) |
| --- | --- | --- | --- | --- | --- |
|  |  |  | CC1(C)CCC(=O)c2ccc(C#Cc3ccc(CC(=O)O)c(F)c3)cc21 [Compound 15, [2-Fluoro-4-(8.8-dimethyl-5-oxo-5,6,7,8-tetrahydro-naphthalene-2-yl-ethynyl)phenyl]-acetic acid] | 1 ± 1 | 5 ± 2 |
| 180 nM | > 10 µM | > 100 µM | Cc1cc(C#Cc2ccc(CC(=O)O)cc2)ccc1Cn1ccnc1 [Compound 121, [4-(4-Imidazol-1-yl-methyl-3-methyl-phenylethynyl)-phenyl]-acetic acid] |  |  |
